Results on one molecule are retold here after publication PMC8700709, “Cannabidiol Inhibits Tau Aggregation In Vitro” (Cells, 2021).

In the experiment the target is T1, tau protein 1N/4R isoform (Homo sapiens, UniProt P10636).
T1 construct: gene MAPT; recombinant human His-tagged tau 1N/4R isoform, expressed in E. coli BL21(DE3)
Briefly: intrinsic Tyr fluorescence quenching titration (Stern-Volmer/Hill; Kb at […] °C), Job's plot […]; supported by ThT aggregation assay, CD and AFM. The format is binding. To be noted: read-out: Kb×10^4(M^-1) (converted).

T1 sequence (P10636 1-412 isoform P10636-7): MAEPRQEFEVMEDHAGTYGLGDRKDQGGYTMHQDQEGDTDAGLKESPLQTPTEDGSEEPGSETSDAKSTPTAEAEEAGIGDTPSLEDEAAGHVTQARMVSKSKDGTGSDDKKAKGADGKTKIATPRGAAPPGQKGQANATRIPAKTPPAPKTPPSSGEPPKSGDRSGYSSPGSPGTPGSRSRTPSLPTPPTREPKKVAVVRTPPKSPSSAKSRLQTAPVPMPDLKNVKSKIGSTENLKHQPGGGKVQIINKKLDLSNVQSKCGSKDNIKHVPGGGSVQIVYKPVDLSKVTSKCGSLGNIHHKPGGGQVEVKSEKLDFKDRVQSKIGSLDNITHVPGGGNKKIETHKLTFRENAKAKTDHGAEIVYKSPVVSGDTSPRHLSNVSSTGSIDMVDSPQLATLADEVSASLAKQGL

With `C=C(C)[C@@H]1CCC(C)=C[C@H]1c1c(O)cc(CCCCC)cc1O` [Cannabidiol], the Kd was 23.8 µM.
